According to patent publication US20110212834A1, “Pesticidal Compound Mixtures” (BAYER CROPSCIENCE AG, priority 2009, published 2011):

How the values were obtained:
Type in all cases: in vivo
Details in all cases: 144 h, single compound, after 6 d
Myzus persicae = Myzus persicae test, spray treatment of infested cabbage leaves
Description: (§1) To produce a suitable preparation of active compound, 1 part by weight of active compound is mixed with the stated amount of solvent and emulsifier, and the concentrate is diluted with emulsifier-containing water to the desired concentration.
Cabbage leaves (Brassica oleracea) which are heavily infested by the green peach aphid (Myzus persicae) are treated by being sprayed with the preparation of the active compound at the desired concentration.
After the specified period of time, the mortality in % is determined. 100% means that all the aphids have been killed; 0% means that none of the aphids have been killed.

Tetranychus urticae = test: Tetranychus test (OP-resistant), sprayed bean plants
Description: as §1
Bean plants (Phaseolus vulgaris) which are heavily infested with all stages of the two-spotted spider mite (Tetranychus urticae) are treated by being sprayed with the preparation of the active compound at the desired concentration.
After the specified period of time, mortality in % is determined. 100% means that all the spider mites have been killed; 0% means that none of the spider mites have been killed.

Phaedon cochleariae = Phaedon cochleariae larvae test, sprayed cabbage leaves
Description: as §1
Cabbage leaves (Brassica oleracea) are treated by being sprayed with the preparation of the active compound at the desired concentration and are infested with larvae of the mustard beetle (Phaedon cochleariae) as long as the leaves are still moist.
(§2) After the specified period of time, the mortality in % is determined. 100% means that all the beetle larvae have been killed; 0% means that none of the beetle larvae have been killed. According to the present application in this test e.g. the following combinations show a synergistic effect in comparison to the single compounds: […]

Spodoptera frugiperda = Spodoptera frugiperda test, sprayed cabbage leaves
Description: as §1
Cabbage leaves (Brassica oleracea) are treated by being sprayed with the preparation of the active compound at the desired concentration and are infested with larvae of the fall army worm (Spodoptera frugiperda) as long as the leaves are still moist.
as §2, with “caterpillars” for “beetle larvae”

| Structure (SMILES) | mortality at 500 g/ha (Myzus persicae) | mortality at 500 g/ha (Phaedon cochleariae) | mortality at 500 g/ha (Spodoptera frugiperda) | other results |
| --- | --- | --- | --- | --- |
| OC(Cc1ccccc1Cl)(Cn1nc[nH]c1=S)C1(Cl)CC1 (stereo not drawn) [Prothioconazole] | 0% | – | – | – |
| CC(C1CC1)C(O)(Cn1cncn1)c1ccc(Cl)cc1 (stereo not drawn) [Cyproconazole, cyproconazole] | 0% | 0% | – | mortality at 500 g/ha (Tetranychus urticae; 500 g/ha): 0% |
| CC(C)(C)C(O)(CCc1ccc(Cl)cc1)Cn1cncn1 (stereo not drawn) [Tebuconazole, tebuconazole] | 0% | 0% | 0% | – |
| CC1(C)[C@H](C=C(Cl)Cl)[C@H]1C(=O)OCc1c(F)c(F)cc(F)c1F [Transfluthrin] | – | – | – | mortality at 4 g/ha (Spodoptera frugiperda; 4 g/ha): 50%; mortality at 100 g/ha (Tetranychus urticae; 100 g/ha): 0%; mortality at 20 g/ha (Phaedon cochleariae; 20 g/ha): 0%; mortality at 20 g/ha (Myzus persicae; 20 g/ha): 0%; mortality at 100 g/ha (Myzus persicae; 100 g/ha): 80% |
| CC(C)C1CCC(Cc2ccc(Cl)cc2)C1(O)Cn1cncn1 (stereo not drawn) [Ipconazole, ipconazole] | 0% | 0% | 0% | – |
